Measurements from the NIST ThermoML archive (doi:10.1021/je700260f).
Numbers after ± are expanded uncertainties.

Settings: 283.14 K, Liquid, Vibrating tube method

FC(C(F)(F)F)C(F)(F)F [1,1,1,2,3,3,3-heptafluoropropane]
Settings	mass density [kg/m3]
13521 kPa	1512.6 ± 1.6
13550 kPa	1512.5 ± 1.6
13594 kPa	1512.8 ± 1.6
13629 kPa	1513 ± 1.6
13672 kPa	1513.2 ± 1.6
13707 kPa	1513.2 ± 1.6
13754 kPa	1513.5 ± 1.6
13783 kPa	1513.6 ± 1.6
13814 kPa	1513.7 ± 1.6
13848 kPa	1513.7 ± 1.6
13878 kPa	1513.9 ± 1.6
13913 kPa	1514.1 ± 1.6
13943 kPa	1514.1 ± 1.6
13983 kPa	1514.3 ± 1.6
14013 kPa	1514.5 ± 1.6
14057 kPa	1514.7 ± 1.6
14086 kPa	1514.9 ± 1.6
14121 kPa	1514.9 ± 1.6
14157 kPa	1515.1 ± 1.6
14187 kPa	1515.1 ± 1.6
14217 kPa	1515.2 ± 1.6
14261 kPa	1515.5 ± 1.6
14304 kPa	1515.6 ± 1.6
14343 kPa	1515.8 ± 1.6
14377 kPa	1515.8 ± 1.6
14406 kPa	1516.1 ± 1.6
14435 kPa	1516.1 ± 1.6
14464 kPa	1516.2 ± 1.6
14504 kPa	1516.4 ± 1.6
14534 kPa	1516.3 ± 1.6
14580 kPa	1516.6 ± 1.6
15750 kPa	1521.1 ± 1.6
15778 kPa	1521.3 ± 1.6
15811 kPa	1521.3 ± 1.6
15838 kPa	1521.3 ± 1.6
15867 kPa	1521.5 ± 1.6
15896 kPa	1521.5 ± 1.6
15929 kPa	1521.8 ± 1.6
15966 kPa	1521.9 ± 1.6
15994 kPa	1521.8 ± 1.6
16031 kPa	1522 ± 1.6
16054 kPa	1522.2 ± 1.6
16198 kPa	1522.7 ± 1.6
16235 kPa	1522.8 ± 1.6
16269 kPa	1522.9 ± 1.6
16306 kPa	1523.1 ± 1.6
16339 kPa	1523.3 ± 1.6
16372 kPa	1523.4 ± 1.6
16405 kPa	1523.5 ± 1.6
16433 kPa	1523.7 ± 1.6
16471 kPa	1523.7 ± 1.6
16499 kPa	1523.9 ± 1.6
16541 kPa	1523.9 ± 1.6
16574 kPa	1524.1 ± 1.6
16649 kPa	1524.3 ± 1.6
16739 kPa	1524.6 ± 1.6
16776 kPa	1524.8 ± 1.6
16803 kPa	1525 ± 1.6
16836 kPa	1525 ± 1.6
16864 kPa	1525.1 ± 1.6
16892 kPa	1525.2 ± 1.6
16935 kPa	1525.3 ± 1.6
16967 kPa	1525.6 ± 1.6
17015 kPa	1525.7 ± 1.6
17055 kPa	1525.8 ± 1.6
17079 kPa	1525.9 ± 1.6
17116 kPa	1526 ± 1.6
17145 kPa	1526.1 ± 1.6
17173 kPa	1526.2 ± 1.6
17206 kPa	1526.4 ± 1.6
17248 kPa	1526.5 ± 1.6
17271 kPa	1526.5 ± 1.6
17304 kPa	1526.7 ± 1.6
17332 kPa	1526.8 ± 1.6
17370 kPa	1527 ± 1.6
17413 kPa	1527.2 ± 1.6
17622 kPa	1527.9 ± 1.6
17656 kPa	1528.1 ± 1.6
17691 kPa	1528.1 ± 1.6
17729 kPa	1528.3 ± 1.6
17758 kPa	1528.4 ± 1.6
17786 kPa	1528.5 ± 1.6
17820 kPa	1528.6 ± 1.6
17850 kPa	1528.6 ± 1.6
17893 kPa	1528.8 ± 1.6
17922 kPa	1529 ± 1.6
17961 kPa	1529 ± 1.6
18006 kPa	1529.3 ± 1.6
18060 kPa	1529.4 ± 1.6
18090 kPa	1529.5 ± 1.6
18129 kPa	1529.6 ± 1.6
18164 kPa	1529.7 ± 1.6
18194 kPa	1529.9 ± 1.6
18233 kPa	1530 ± 1.6
18274 kPa	1530 ± 1.6
18312 kPa	1530.2 ± 1.6
18389 kPa	1530.5 ± 1.6
18616 kPa	1531.3 ± 1.6
18645 kPa	1531.6 ± 1.6
18675 kPa	1531.4 ± 1.6
18719 kPa	1531.7 ± 1.6
18754 kPa	1531.8 ± 1.6
18793 kPa	1531.9 ± 1.6
18821 kPa	1532 ± 1.6
18862 kPa	1532.3 ± 1.6
18911 kPa	1532.4 ± 1.6
18933 kPa	1532.4 ± 1.6
18973 kPa	1532.7 ± 1.6
19007 kPa	1532.6 ± 1.6
19042 kPa	1532.7 ± 1.6
19087 kPa	1533 ± 1.6
19118 kPa	1533.1 ± 1.6
19150 kPa	1533.1 ± 1.6
19177 kPa	1533.3 ± 1.6
19213 kPa	1533.4 ± 1.6
19240 kPa	1533.5 ± 1.6
19277 kPa	1533.6 ± 1.6
19309 kPa	1533.7 ± 1.6
19337 kPa	1533.9 ± 1.6
19373 kPa	1534 ± 1.6
19406 kPa	1534.1 ± 1.6
20075 kPa	1536.4 ± 1.6
20104 kPa	1536.4 ± 1.6
20142 kPa	1536.6 ± 1.6
20175 kPa	1536.7 ± 1.6
20372 kPa	1537.3 ± 1.6
20424 kPa	1537.4 ± 1.6
20453 kPa	1537.6 ± 1.6
22509 kPa	1544.4 ± 1.7
22609 kPa	1544.6 ± 1.7
22639 kPa	1544.7 ± 1.7
22675 kPa	1545 ± 1.7
22904 kPa	1545.6 ± 1.7
22939 kPa	1545.7 ± 1.7
23014 kPa	1546 ± 1.7
23096 kPa	1546.2 ± 1.7
23454 kPa	1547.3 ± 1.7
23496 kPa	1547.4 ± 1.7
23531 kPa	1547.5 ± 1.7
23562 kPa	1547.6 ± 1.7
23603 kPa	1547.8 ± 1.7
23638 kPa	1548 ± 1.7
23709 kPa	1548.1 ± 1.7
23828 kPa	1548.6 ± 1.7
23869 kPa	1548.8 ± 1.7
23896 kPa	1548.7 ± 1.7
23944 kPa	1548.9 ± 1.7
23985 kPa	1548.9 ± 1.7
24017 kPa	1549.2 ± 1.7
24350 kPa	1550.1 ± 1.7
24387 kPa	1550.2 ± 1.7
24422 kPa	1550.4 ± 1.7
24459 kPa	1550.4 ± 1.7
24490 kPa	1550.5 ± 1.7
24532 kPa	1550.8 ± 1.7
24572 kPa	1550.8 ± 1.7
25104 kPa	1552.3 ± 1.7
25136 kPa	1552.5 ± 1.7
25173 kPa	1552.8 ± 1.7
25209 kPa	1552.7 ± 1.7
25250 kPa	1553 ± 1.7
25282 kPa	1552.9 ± 1.7
25327 kPa	1553.2 ± 1.7
25365 kPa	1553.4 ± 1.7
25402 kPa	1553.3 ± 1.7
25434 kPa	1553.5 ± 1.7
25476 kPa	1553.6 ± 1.7
25550 kPa	1553.9 ± 1.7
25673 kPa	1554.3 ± 1.7
25766 kPa	1554.5 ± 1.7
25800 kPa	1554.6 ± 1.7
25832 kPa	1554.7 ± 1.7
25913 kPa	1554.9 ± 1.7
26847 kPa	1557.6 ± 1.7
27304 kPa	1559.1 ± 1.7
27346 kPa	1559.3 ± 1.7
27389 kPa	1559.3 ± 1.7
27418 kPa	1559.4 ± 1.7
27466 kPa	1559.4 ± 1.7
27495 kPa	1559.6 ± 1.7
27777 kPa	1560.4 ± 1.7
28197 kPa	1561.7 ± 1.7
28230 kPa	1561.8 ± 1.7
28264 kPa	1561.8 ± 1.7
28306 kPa	1562.1 ± 1.7
28335 kPa	1562.1 ± 1.7
28371 kPa	1562 ± 1.7
28399 kPa	1562.2 ± 1.7
28437 kPa	1562.3 ± 1.7
28909 kPa	1563.6 ± 1.7
28942 kPa	1563.9 ± 1.7
28978 kPa	1564 ± 1.7
29016 kPa	1564.1 ± 1.7
29044 kPa	1564.1 ± 1.7
29121 kPa	1564.3 ± 1.7
29155 kPa	1564.3 ± 1.7
29185 kPa	1564.4 ± 1.7
29223 kPa	1564.5 ± 1.7
29257 kPa	1564.7 ± 1.7
29291 kPa	1564.7 ± 1.7
29319 kPa	1564.9 ± 1.7
29391 kPa	1565 ± 1.7
29500 kPa	1565.3 ± 1.7
29534 kPa	1565.4 ± 1.7
30122 kPa	1567.2 ± 1.8
